The values below come from patent US20230278995A1, “1,3,4-OXADIAZOLE DERIVATIVE COMPOUNDS AS HISTONE DEACETYLASE 6 INHIBITOR, AND THE PHARMACEUTICAL COMPOSITION COMPRISING THE SAME” (CHONG KUN DANG PHARMACEUTICAL CORP., priority 2020, published 2023).

For one assay, the target named is T1, human recombinant HDAC6 (Homo sapiens, UniProt Q9UBN7).
T1 construct: purchased Calbiochem Inc. 382180
T1 sequence (Q9UBN7 1-1215): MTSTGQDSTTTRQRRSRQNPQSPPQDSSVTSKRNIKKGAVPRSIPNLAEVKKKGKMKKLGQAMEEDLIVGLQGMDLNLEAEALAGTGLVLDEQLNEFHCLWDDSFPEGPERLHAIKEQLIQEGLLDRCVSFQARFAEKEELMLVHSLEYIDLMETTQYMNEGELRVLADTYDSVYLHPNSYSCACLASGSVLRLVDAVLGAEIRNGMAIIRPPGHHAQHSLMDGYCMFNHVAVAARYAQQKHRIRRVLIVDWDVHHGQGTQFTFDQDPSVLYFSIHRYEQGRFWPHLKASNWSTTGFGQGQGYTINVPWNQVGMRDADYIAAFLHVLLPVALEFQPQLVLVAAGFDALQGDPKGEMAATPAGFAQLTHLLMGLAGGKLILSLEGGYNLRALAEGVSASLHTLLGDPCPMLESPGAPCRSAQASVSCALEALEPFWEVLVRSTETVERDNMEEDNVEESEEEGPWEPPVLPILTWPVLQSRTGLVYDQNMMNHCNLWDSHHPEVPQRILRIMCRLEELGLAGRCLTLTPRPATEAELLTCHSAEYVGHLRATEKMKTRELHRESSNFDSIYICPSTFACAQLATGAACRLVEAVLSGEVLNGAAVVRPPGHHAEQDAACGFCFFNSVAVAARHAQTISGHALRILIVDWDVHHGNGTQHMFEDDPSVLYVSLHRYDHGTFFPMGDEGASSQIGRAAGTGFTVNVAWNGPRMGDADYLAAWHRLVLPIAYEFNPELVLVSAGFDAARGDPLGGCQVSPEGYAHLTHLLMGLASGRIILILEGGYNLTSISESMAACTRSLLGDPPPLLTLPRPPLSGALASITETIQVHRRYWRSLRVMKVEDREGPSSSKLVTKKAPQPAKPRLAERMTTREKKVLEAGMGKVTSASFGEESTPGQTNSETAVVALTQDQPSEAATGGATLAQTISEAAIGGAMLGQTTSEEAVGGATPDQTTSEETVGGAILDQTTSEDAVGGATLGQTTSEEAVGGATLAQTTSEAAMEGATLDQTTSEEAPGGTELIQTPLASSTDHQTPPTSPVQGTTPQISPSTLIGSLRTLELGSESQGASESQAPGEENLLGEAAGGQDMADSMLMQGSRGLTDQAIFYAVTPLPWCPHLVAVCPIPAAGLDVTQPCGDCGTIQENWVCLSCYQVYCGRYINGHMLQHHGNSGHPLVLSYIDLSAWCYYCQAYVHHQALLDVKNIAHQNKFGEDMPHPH
In words: HDAC enzyme activity inhibition assay (HDAC Fluorimetric Drug Discovery Kit), HDAC6. Type of assay: biochemical. The settings on record: for HDAC6 selectivity (fold): HDAC1 vs HDAC6; for IC50: human recombinant HDAC6, same protocol as HDAC1. The method, boiled down: (§1)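 Recombinant human HDAC1 or HDAC6 (0.3 μg) reacted with 10 μM Fluor de Lys-SIRT1 substrate at 30 °C for 60 min. Developer added for 30 min, then fluorescence read at Ex 360/Em 460.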

A further assay deals with T2, human recombinant HDAC1 (Homo sapiens, UniProt Q13547).
T2 construct: purchased Enzo Life Sciences, Inc. BML-SE456
In words: HDAC enzyme activity inhibition assay (HDAC Fluorimetric Drug Discovery Kit), HDAC1. The settings on record: human recombinant HDAC1, Fluor de Lys-SIRT1 substrate, 30° C. 60 minutes. Type of assay: biochemical. The method, boiled down: as §1

T2 sequence (Q13547 whole entry): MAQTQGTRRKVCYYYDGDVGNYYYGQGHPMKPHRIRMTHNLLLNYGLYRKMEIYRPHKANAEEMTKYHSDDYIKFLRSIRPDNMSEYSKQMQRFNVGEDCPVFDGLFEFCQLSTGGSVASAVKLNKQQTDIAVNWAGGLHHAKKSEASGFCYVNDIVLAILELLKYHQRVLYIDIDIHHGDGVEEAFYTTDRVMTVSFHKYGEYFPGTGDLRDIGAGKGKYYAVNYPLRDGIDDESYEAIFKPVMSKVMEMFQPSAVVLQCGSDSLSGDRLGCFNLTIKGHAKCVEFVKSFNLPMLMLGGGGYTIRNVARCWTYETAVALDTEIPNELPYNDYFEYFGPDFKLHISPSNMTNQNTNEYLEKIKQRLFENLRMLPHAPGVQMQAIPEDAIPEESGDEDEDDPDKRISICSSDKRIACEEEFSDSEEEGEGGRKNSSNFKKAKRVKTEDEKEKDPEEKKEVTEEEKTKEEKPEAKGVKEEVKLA

Broadly, the IC50 is the concentration at which inhibition is half-maximal. In the case of `CC(C)C(=O)N1CCC(F)(C(=O)N(Cc2ccc(-c3nnc(C(F)F)o3)cc2F)c2ccccc2)CC1` [Compound 3440, N-(4-(5-(difluoromethyl)-1,3,4-oxadiazol-2-yl)-2-fluorobenzyl)-4-fluoro-1-isobutyryl N-phenylpiperidine-4-carboxamide], at human recombinant HDAC6, the “HDAC6 selectivity (fold)” value is given as 178 fold and the IC50 came out at 280 nM. Further, the IC50 at human recombinant HDAC1 was greater than 50000 nM.
The matching figures for `CS(=O)(=O)N1CCC(F)(C(=O)N(Cc2ccc(-c3nnc(C(F)F)o3)cc2F)c2ccccc2)CC1` [Compound 3442, N-(4-(5-(difluoromethyl)-1,3,4-oxadiazol-2-yl)-2-fluorobenzyl)-4-fluoro-1-(methylsulfonyl)-N-phenylpiperidine-4-carboxamide]: 154 fold, 324 nM and greater than 50000 nM.
For `CCN1CCC(F)(C(=O)N(Cc2ccc(-c3nnc(C(F)F)o3)cn2)c2cccc(F)c2)CC1` [Compound 3443, N-((5-(5-(difluoromethyl)-1,3,4-oxadiazol-2-yl)pyridin-2-yl)methyl)-1-ethyl-4-fluoro N-(3-fluorophenyl)piperidine-4-carboxamide] the same measures were 967 fold, 51.7 nM and greater than 50000 nM.
For `CC(C)(C)OC(=O)N1CC(F)(C(=O)N(Cc2ccc(-c3nnc(C(F)(F)F)o3)cn2)c2cccc(F)c2)C1` [Compound 6890, tert-butyl 3-fluoro-3-((3-fluorophenyl)((5-(5-(trifluoromethyl)-1,3,4-oxadiazol-2-yl)pyridin-2-yl)methyl)carbamoyl)azetidine-1-carboxylate] the same measures were 57 fold, 877 nM and greater than 50000 nM.
On to `CN1CC(F)(C(=O)N(Cc2ccc(-c3nnc(C(F)(F)F)o3)cn2)c2cccc(F)c2)C1` [Compound 6891, 3-fluoro-N-(3-fluorophenyl)-1-methyl-N-((5-(5-(trifluoromethyl)-1,3,4-oxadiazol-2-yl)pyridin-2-yl)methyl)azetidine-3-carboxamide], for which, on human recombinant HDAC6, the “HDAC6 selectivity (fold)” value was 196 fold and the IC50 is 254 nM. Besides, at human recombinant HDAC1, the IC50 is greater than 50000 nM.
